Structures are written as SMILES. A value given as a limit tells only on which side of the number the result lay.

Experiment [1] addresses human recombinant LPA1 Lysophospholipid receptor (Homo sapiens (Human), UniProt Q92633). In words: Calcium flux assay using FLIPR, LPAR1 antagonist activity. It counts as cell-based. The settings on record: for IC50: ChemiScreen stable cell line, antagonist mode, calcium flux. The protocol:
(§1) Calcium Flux Assay Using Fluorometric Imaging Plate Reader (FLIPR)
Cell Culture Conditions: The ChemiScreen Calcium-optimized stable cell line containing the human recombinant LPA1 Lysophospholipid receptor was purchased from Chemicon International, Inc./Millipore. The cells were cultured in DMEM-high glucose supplemented with 10% fetal bovine serum, 2 mM glutamine, 100 U/mL penicillin/100 μg/mL streptomycin, 1× non-essential amino acids, 10 mM HEPES and 0.25 mg/mL Geneticin. Cells were harvested with trypsin-EDTA and counted using ViaCount reagent. The cell suspension volume was adjusted to 2.0×10^5 cells/mL with complete growth media. Aliquots of 50 μL were dispensed into 384 well black/clear tissue culture treated plates (BD) and the microplates were placed in a 37° C. incubator overnight. The following day plates were used in the assay.
(§2) Dye Loading and Assay: Loading Buffer (FLIPR Calcium-4, Molecular Devices) was prepared by dissolving the contents of one bottle into 100 mL Hank's Balanced Salt Solution containing 20 mM HEPES and 2.5 mM probenecid. Plates were loaded onto Biotek plate washer and growth media was removed and replaced with 20 μL of Hank's Balanced Salt Solution containing 20 mM HEPES and 2.5 mM probenecid, followed by 25 μL of Loading Buffer. The plates were then incubated for 30 minutes at 37° C.
(§3) During the incubation, test compounds were prepared by adding 90 μL of HBSS/20 mM HEPES/0.1% BSA buffer to 2 μL of serially diluted compounds. To prepare serial dilutions, 10 mM stocks of compounds were prepared in 100% DMSO. The compound dilution plate was set up as follows: well #1 received 29 μL of stock compound and 31 μL DMSO. Wells 2-10 received 40 μL of DMSO. After mixing, 20 μL of solution from well #1 was transferred into well #2, followed by 1:3 serial dilutions out 10 steps. 2 μL of diluted compound was transferred into duplicate wells of 384 well “assay plate” and then 90 μL of buffer was added.
(§4) After incubation, both the cell and “assay” plates were brought to the FLIPR and 20 μL of the diluted compounds were transferred to the cell plates by the FLIPR. Compound addition was monitored by the FLIPR to detect any agonist activity of the compounds. Plates were then incubated for 30 minutes at room temperature protected from light. After the incubation, plates were returned to the FLIPR and 20 μL of 4.5× concentrated agonist was added to the cell plates. During the assay, fluorescence readings were taken simultaneously from all 384 wells of the cell plate every 1.5 seconds. Five readings were taken to establish a stable baseline, then 20 μL of sample was rapidly (30 μL/sec) and simultaneously added to each well of the cell plate. The fluorescence was continuously monitored before, during and after sample addition for a total elapsed time of 100 seconds. Responses (increase in peak fluorescence) in each well following agonist addition was determined. The initial fluorescence reading from each well, prior to ligand stimulation, was used as zero baseline value for the data from that well. The responses were expressed as % inhibition of the buffer control. The IC50 value, defined as the concentration of a compound that is required for 50% inhibition of the buffer control, was calculated by fitting the percent inhibition data for 10 concentrations to a sigmoidal dose-response (4 parameter logistic) model using Genedata Condoseo program [model 205, F(x)=(A+(B−A)/(1+((C/x)^D))))].
(A change in cytosolic calcium serves as a functional read-out for many receptors and channels.)

For experiment [2], the target named is LPAR3 (Homo sapiens (Human), UniProt Q9UBY5). In words: Calcium flux assay using FLIPR, LPAR3 antagonist activity. It counts as cell-based. The conditions noted are these: for IC50: antagonist mode, calcium flux. The protocol: as §1, §2, §3, §4
Chain of LPAR3 (Q9UBY5 whole entry, species assumed): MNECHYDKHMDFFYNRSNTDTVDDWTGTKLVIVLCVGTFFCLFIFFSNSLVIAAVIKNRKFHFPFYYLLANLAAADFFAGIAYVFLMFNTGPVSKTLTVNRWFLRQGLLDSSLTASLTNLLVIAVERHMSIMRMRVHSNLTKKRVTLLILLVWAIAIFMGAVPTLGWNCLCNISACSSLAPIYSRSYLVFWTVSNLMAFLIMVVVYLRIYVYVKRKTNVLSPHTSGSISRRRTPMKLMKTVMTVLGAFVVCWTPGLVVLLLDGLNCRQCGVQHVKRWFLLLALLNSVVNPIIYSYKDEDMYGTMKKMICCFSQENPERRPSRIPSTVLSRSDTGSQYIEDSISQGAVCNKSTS

Chain of human recombinant LPA1 Lysophospholipid receptor (Q92633 whole entry): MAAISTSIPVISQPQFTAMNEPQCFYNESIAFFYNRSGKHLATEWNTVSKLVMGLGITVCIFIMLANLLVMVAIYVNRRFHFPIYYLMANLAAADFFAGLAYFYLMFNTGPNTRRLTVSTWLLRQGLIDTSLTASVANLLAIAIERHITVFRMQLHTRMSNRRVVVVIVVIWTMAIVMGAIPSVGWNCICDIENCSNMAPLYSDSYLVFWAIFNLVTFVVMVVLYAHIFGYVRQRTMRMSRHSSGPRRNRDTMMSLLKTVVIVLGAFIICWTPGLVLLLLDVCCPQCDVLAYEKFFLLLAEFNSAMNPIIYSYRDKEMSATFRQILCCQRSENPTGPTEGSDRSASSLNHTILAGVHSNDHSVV

`CC(OC(=O)Nc1c(-c2ccc(-c3ccc(C4(C(=O)O)CC4)cc3)cc2)nnn1C)c1cccc(C(F)(F)F)c1` (racemic) [Example 4, 1-(4′-{1-Methyl-5-[1-(3-trifluoromethyl-phenyl)-ethoxycarbonylamino]-1H-[1,2,3]triazol-4-yl}-biphenyl-4-yl)-cyclopropanecarboxylic acid]: the 50% inhibitory concentration (IC50) (in general, the midpoint of a concentration-inhibition curve) in experiment [1] came to 0.046 µM; in experiment [2] it was 0.279 µM.

In the case of `C[C@@H](OC(=O)Nc1c(-c2ccc(Br)cc2)nnn1C)c1ccccc1` [Example 1, [5-(4-Bromo-phenyl)-3-methyl-3H-[1,2,3]triazol-4-yl]-carbamic acid (R)-1-phenyl-ethyl ester], the IC50 in experiment [1] is 21.9 µM; in experiment [2], greater than 30 µM. Moreover, in experiment [1] (at 30 μM), the inhibition (usually the percentage by which the read-out fell short of the control) at 30 µM came to 52.3%.

As to `C[C@@H](OC(=O)Nc1c(-c2ccc(-c3ccc(C4(C(=O)O)CC4)cc3)cc2)nnn1C)c1ccccc1` [Example 2, 1-{4′-[1-Methyl-5-((R)-1-phenyl-ethoxycarbonylamino)-1H-[1,2,3]triazol-4-yl]-biphenyl-4-yl}-cyclopropanecarboxylic acid], the half-inhibitory concentration (IC50) in experiment [1] came out at 0.018 µM; in experiment [2], 2.29 µM.

As for `C[C@@H](OC(=O)Nc1c(-c2ccc(-c3ccc(CC(=O)O)cc3)cc2)nnn1C)c1ccccc1` [Example 3, {4′-[1-Methyl-5-((R)-1-phenyl-ethoxycarbonylamino)-1H-[1,2,3]triazol-4-yl]-biphenyl-4-yl}-acetic acid], the IC50 in experiment [1] stood at 0.048 µM. For the same molecule, in experiment [2], the half-maximal inhibitory concentration (IC50) came out at 21.9 µM and the inhibition at 30 µM is 58.2%.

On to `C[C@H](OC(=O)Nc1c(-c2ccc(-c3ccc(C4(C(=O)O)CC4)cc3)cc2)nnn1C)c1cccc(C(F)(F)F)c1` [Example 5, 1-(4′-{1-Methyl-5-[(S)-1-(3-trifluoromethyl-phenyl)-ethoxycarbonylamino]-1H-[1,2,3]triazol-4-yl}-biphenyl-4-yl)-cyclopropanecarboxylic acid], for which the half-maximal inhibitory concentration (IC50) in experiment [1] was determined as 2.66 µM; in experiment [2], 6.31 µM.

As to `C[C@@H](OC(=O)Nc1c(-c2ccc(-c3ccc(C4(C(=O)O)CC4)cc3)cc2)nnn1C)c1cccc(C(F)(F)F)c1` [Example 6, 1-(4′-{1-Methyl-5-[(R)-1-(3-trifluoromethyl-phenyl)-ethoxycarbonylamino]-1H-[1,2,3]triazol-4-yl}-biphenyl-4-yl)-cyclopropanecarboxylic acid], the half-maximal inhibitory concentration (IC50) amounted to 0.018 µM in experiment [1] and 0.132 µM in experiment [2].

In the case of `CC(C)[C@@H](C)OC(=O)Nc1c(-c2ccc(-c3ccc(C4(C(=O)O)CC4)cc3)cc2)nnn1C` [Example 7, 1-{4′-[5-((R)-1,2-Dimethyl-propoxycarbonylamino)-1-methyl-1H-[1,2,3]triazol-4-yl]biphenyl-4-yl}-cyclopropanecarboxylic acid], the concentration for half-maximal inhibition (IC50) in experiment [1] was 0.07 µM; in experiment [2], greater than 30 µM.

As to `C[C@@H](OC(=O)Nc1nnn(C)c1-c1ccc(-c2ccc(C3(C(=O)O)CC3)cc2)cc1)c1ccccc1` [Example 8, 1-{4′-[3-Methyl-5-((R)-1-phenyl-ethoxycarbonylamino)-3H-[1,2,3]triazol-4-yl]-biphenyl-4-yl}-cyclopropanecarboxylic acid], the IC50 in experiment [1] and in experiment [2] was greater than 30 µM in each case.

Take `C[C@@H](OC(=O)Nc1c(-c2ccc(-c3cccc(C4(C(=O)O)CC4)c3)cc2)nnn1C)c1ccccc1` [Example 9, (R)-1-(4′-(1-Methyl-5-((1-phenylethoxy)carbonylamino)-1H-1,2,3-triazol-4-yl)biphenyl-3-yl)cyclopropanecarboxylic acid]: the results for the IC50 in experiment [1] and in experiment [2] were 4.45 µM and 18.4 µM, respectively. Also, the inhibition at 30 µM in experiment [2] came to 62%.

In the case of `COC(=O)C1(c2ccc(-c3ccc(-c4nnn(C)c4NC(=O)O[C@H](C)c4ccccc4)c(F)c3)cc2)CC1` [Example 10, 1-{3′-Fluoro-4′-[1-methyl-5-((R)-1-phenyl-ethoxycarbonylamino)-1H-[1,2,3]triazole-4-yl]-biphenyl-4-yl}-cyclopropanecarboxylic acid methyl ester], the IC50 in experiment [1] and in experiment [2] was greater than 30 µM throughout.

Turning to `C[C@@H](OC(=O)Nc1c(-c2ccc(-c3ccc(C4(C(=O)O)CC4)cc3)cc2F)nnn1C)c1ccccc1` [Example 11, 1-{3′-Fluoro-4′-[1-methyl-5-((R)-1-phenyl-ethoxycarbonylamino)-1H-[1,2,3]triazole-4-yl]-biphenyl-4-yl}-cyclopropanecarboxylic acid], in experiment [1], the half-maximal inhibitory concentration (IC50) was 0.018 µM. In experiment [2], the IC50 came out at 27.4 µM and the inhibition at 30 µM stood at 62%.

On to `C[C@@H](OC(=O)Nc1c(-c2ccc(-c3ccc(C4(C(=O)NS(C)(=O)=O)CC4)cc3)cc2)nnn1C)c1ccccc1` [Example 12, {5-[4′-(1-Methanesulfonylaminocarbonyl-cyclopropyl)-biphenyl-4-yl]-3-methyl-3H-[1,2,3]triazol-4-yl}-carbamic acid (R)-1-phenyl-ethyl ester], for which the IC50 is 0.0188 µM in experiment [1] and 2.31 µM in experiment [2].

As for `C[C@@H](OC(=O)Nc1c(-c2ccc(-c3ccc(C4(C(=O)NS(C)(=O)=O)CC4)cc3)cc2)nnn1C)c1cccc(C(F)(F)F)c1` [Example 13, {5-[4′-(1-Methanesulfonylaminocarbonyl-cyclopropyl)-biphenyl-4-yl]-3-methyl-3H-[1,2,3]triazol-4-yl}-carbamic acid (R)-1-(3-trifluoromethyl-phenyl)-ethyl ester], the IC50 in experiment [1] turned out to be 0.0245 µM; in experiment [2], 0.0657 µM.

`C[C@@H](OC(=O)Nc1c(-c2ccc(C3CCC(CC(=O)O)CC3)cc2)nnn1C)c1ccccc1` (stereo partly drawn) [Example 14, (4-{4-[1-Methyl-5-((R)-1-phenyl-ethoxycarbonylamino)-1H-[1,2,3]triazol-4-yl]-phenyl}-cyclohexyl)-acetic acid]: the half-inhibitory concentration (IC50) in experiment [1] was 0.058 µM; in experiment [2], 18.6 µM. In addition, in experiment [2], the inhibition at 30 µM amounted to 68%.

(Values after patent US9321738B2, “N-alkyltriazole compounds as LPAR antagonists” (Hoffmann-La Roche Inc., priority 2012, dated 2016).)
